Bounds are passed on as bounds.

Experiment [1] deals with Poly [ADP-ribose] polymerase 1 (Homo sapiens, UniProt P09874). In words: Inhibition of full length recombinant human N-terminal GST-tagged PARP1 expressed in Baculovirus infected Sf9 cells using TACS-Sapphire as substrate measured after 1 hr by colorimetric assay.
For experiment [2], the target named is Poly [ADP-ribose] polymerase 2 (Homo sapiens, UniProt Q9UGN5). In words: Inhibition of recombinant human N-terminal GST-tagged PARP2 (2 to 583 residues) expressed in baculovirus infected Sf9 cells measured after 1 hr by chemiluminescence assay.
Experiment [3] has as its target T1, Poly [ADP-ribose] polymerase tankyrase-1 (Homo sapiens, UniProt O95271).
T1 sequence (O95271 whole entry): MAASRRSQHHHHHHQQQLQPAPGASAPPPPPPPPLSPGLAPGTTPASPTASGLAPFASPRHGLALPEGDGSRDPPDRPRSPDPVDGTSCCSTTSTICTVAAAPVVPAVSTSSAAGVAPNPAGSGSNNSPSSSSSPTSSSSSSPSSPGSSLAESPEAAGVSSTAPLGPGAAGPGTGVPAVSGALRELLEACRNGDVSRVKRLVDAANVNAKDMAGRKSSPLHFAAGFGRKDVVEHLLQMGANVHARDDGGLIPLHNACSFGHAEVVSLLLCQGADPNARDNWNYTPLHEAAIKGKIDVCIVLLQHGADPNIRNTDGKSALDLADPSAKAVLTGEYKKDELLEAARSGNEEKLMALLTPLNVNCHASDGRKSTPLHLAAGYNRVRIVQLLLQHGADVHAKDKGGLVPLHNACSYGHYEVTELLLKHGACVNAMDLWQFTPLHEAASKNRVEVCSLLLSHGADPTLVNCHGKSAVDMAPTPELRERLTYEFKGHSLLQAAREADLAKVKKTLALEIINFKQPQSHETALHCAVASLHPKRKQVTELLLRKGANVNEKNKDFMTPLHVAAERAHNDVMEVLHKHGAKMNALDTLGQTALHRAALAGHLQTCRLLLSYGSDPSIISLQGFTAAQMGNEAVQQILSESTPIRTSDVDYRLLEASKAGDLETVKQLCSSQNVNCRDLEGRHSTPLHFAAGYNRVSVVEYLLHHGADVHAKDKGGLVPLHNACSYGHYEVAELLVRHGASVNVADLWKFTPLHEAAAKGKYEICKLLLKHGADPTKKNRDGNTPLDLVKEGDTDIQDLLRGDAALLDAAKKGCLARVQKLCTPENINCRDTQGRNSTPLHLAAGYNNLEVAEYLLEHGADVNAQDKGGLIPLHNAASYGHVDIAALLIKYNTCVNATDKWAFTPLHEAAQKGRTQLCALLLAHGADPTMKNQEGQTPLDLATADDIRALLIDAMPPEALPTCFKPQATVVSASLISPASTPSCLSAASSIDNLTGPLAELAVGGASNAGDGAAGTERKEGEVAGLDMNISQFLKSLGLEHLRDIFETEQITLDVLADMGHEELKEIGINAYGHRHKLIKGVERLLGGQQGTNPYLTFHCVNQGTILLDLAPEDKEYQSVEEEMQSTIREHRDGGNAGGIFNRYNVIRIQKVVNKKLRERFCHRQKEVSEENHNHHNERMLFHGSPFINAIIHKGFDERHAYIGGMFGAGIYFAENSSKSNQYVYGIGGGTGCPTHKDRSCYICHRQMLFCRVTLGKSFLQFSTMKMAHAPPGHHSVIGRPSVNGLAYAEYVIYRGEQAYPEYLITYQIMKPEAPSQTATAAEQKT
In words: Inhibition of recombinant human N-terminal GST-tagged TNKS1 (1001 to 1327 residues) expressed in baculovirus infected sf9 cells using TACS-Sapphire as substrate measured after 30 mins by colorimetric assay.

For experiment [4], the target named is T2, Poly [ADP-ribose] polymerase tankyrase-2 (Homo sapiens, UniProt Q9H2K2).
T2 sequence (Q9H2K2 whole entry): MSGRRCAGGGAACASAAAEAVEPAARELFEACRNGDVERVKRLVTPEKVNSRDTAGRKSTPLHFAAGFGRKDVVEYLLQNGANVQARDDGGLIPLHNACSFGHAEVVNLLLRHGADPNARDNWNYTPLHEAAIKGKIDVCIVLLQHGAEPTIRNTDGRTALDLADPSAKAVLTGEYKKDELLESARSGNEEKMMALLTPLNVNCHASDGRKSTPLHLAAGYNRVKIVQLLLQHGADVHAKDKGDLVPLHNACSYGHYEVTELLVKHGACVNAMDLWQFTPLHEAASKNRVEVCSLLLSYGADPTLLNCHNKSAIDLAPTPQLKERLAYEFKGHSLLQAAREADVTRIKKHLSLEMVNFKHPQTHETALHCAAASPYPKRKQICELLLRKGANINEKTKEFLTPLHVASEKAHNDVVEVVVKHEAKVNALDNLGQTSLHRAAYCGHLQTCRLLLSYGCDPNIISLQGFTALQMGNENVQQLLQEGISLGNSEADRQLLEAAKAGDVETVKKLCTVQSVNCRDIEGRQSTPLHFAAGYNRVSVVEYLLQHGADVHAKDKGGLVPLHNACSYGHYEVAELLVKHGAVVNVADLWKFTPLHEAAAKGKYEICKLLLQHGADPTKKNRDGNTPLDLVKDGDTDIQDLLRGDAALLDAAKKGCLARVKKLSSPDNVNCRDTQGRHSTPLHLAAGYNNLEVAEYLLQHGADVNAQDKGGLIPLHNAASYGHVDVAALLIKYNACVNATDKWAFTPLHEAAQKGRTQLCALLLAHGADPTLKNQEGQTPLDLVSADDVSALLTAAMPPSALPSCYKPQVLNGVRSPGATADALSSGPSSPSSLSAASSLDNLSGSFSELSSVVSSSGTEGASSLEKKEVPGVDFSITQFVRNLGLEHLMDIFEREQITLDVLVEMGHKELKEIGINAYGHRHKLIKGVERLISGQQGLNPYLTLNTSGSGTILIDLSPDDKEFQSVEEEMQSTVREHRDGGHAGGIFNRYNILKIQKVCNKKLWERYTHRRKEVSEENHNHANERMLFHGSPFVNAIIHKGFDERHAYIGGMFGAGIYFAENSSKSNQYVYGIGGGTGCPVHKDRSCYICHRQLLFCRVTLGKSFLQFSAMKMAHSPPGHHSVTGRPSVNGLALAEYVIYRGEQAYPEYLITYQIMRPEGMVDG
In words: Inhibition of recombinant human N-terminal His-GST-tagged TNKS2 (849 to 1166 residues) expressed in baculovirus infected Sf9 cells using biotinylated NAD+ as substrate measured after 2 hrs.

Chain of Poly [ADP-ribose] polymerase 2 (Q9UGN5 whole entry, the tested form may be a part): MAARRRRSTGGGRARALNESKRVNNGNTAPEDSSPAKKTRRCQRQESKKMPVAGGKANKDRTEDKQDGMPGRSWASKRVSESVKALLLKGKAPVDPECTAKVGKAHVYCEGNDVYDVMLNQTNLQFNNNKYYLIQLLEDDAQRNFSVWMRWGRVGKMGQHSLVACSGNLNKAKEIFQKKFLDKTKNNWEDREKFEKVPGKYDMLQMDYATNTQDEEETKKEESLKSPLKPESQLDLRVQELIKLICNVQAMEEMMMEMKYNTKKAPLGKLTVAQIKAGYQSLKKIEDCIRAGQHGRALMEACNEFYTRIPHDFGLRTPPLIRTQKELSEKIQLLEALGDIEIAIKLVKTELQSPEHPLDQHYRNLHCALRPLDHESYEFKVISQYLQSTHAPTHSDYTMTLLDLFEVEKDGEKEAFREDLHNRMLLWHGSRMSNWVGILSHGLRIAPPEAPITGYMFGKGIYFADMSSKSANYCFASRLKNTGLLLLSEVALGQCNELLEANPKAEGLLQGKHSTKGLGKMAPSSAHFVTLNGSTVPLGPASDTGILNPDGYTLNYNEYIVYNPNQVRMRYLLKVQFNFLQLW
Chain of Poly [ADP-ribose] polymerase 1 (P09874 whole entry, the tested form may be a part): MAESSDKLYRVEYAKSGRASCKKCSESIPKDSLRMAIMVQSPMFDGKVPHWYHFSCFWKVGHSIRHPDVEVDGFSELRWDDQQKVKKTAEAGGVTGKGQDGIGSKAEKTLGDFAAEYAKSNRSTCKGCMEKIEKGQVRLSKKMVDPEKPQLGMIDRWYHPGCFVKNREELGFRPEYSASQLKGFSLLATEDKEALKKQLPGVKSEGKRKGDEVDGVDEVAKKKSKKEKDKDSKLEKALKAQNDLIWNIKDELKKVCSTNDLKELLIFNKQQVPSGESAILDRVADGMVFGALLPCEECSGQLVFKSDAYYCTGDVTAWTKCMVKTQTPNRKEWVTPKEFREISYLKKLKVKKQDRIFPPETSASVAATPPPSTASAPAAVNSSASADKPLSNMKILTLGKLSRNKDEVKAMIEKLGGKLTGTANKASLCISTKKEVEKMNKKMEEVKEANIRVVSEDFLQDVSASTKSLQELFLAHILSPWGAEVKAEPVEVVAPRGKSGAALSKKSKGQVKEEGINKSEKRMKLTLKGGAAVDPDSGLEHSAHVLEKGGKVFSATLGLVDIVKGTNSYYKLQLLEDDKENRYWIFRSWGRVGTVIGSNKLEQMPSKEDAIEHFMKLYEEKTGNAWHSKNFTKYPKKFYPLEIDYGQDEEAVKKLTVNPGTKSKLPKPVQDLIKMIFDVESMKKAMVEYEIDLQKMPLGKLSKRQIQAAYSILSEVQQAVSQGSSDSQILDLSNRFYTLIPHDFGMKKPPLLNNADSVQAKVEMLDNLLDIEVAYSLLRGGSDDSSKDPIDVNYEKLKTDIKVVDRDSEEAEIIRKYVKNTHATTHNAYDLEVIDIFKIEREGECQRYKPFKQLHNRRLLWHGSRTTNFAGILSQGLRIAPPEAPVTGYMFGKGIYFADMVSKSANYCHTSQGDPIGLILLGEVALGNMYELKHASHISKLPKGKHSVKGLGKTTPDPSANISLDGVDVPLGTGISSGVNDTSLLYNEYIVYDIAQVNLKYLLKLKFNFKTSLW

Regarding `O=C(O)CCc1nc(O)c2ccccc2n1`, the IC50 is 6.7 µM in experiment [1] (read-out: IC50), 0.125 µM in experiment [2], greater than 100 µM in experiment [3] and greater than 100 µM in experiment [4].
Take `O=C(Nc1cccc2cccnc12)c1ccc(N2C(=O)[C@@H]3[C@@H]4CC[C@@H](C4)[C@@H]3C2=O)cc1`: the IC50 was greater than 100 µM in experiment [1] (read-out: IC50), greater than 100 µM in experiment [2] and 0.343 µM in experiment [3].
Consider `Nc1ccc(C(=O)Nc2cccc3cccnc23)cc1`, for which the IC50 in experiment [1] (read-out: IC50) and in experiment [3] was greater than 100 µM throughout.
In the case of `Cc1cccc2c(=O)[nH]c(CCC(=O)O)nc12`, the IC50 in experiment [1] (read-out: IC50) is 1 µM; in experiment [1] (read-out: pIC50 (converted)) it was 6.61 µM; in experiment [2], 0.145 µM; in experiment [3], greater than 100 µM; in experiment [4], greater than 100 µM.

The values are drawn from ChEMBL document CHEMBL4002591 (J Med Chem, 2017).
